Columns and labels:
[1] = biological target: T1, Aurora kinase A (Homo sapiens) (UniProt O14965); experiment: Inhibition of human Aurora A using [H-LRRASLG] as substrate at 20 uM in presence of [gamma-33P]-ATP incubated for 2 hrs by hotspot kinase assay relative to control
T1 sequence (whole entry): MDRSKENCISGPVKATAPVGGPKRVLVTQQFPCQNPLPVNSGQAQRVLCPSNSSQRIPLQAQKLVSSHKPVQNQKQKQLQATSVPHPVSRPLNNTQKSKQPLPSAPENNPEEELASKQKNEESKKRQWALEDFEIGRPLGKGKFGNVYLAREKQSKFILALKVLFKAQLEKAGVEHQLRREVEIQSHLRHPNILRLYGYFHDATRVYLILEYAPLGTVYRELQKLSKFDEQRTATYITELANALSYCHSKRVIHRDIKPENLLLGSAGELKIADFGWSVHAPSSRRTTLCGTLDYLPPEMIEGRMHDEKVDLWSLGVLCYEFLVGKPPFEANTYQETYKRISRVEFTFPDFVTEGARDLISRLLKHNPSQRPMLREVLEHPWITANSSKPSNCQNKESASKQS

[2] = biological target: T2, Aurora kinase B (Homo sapiens, UniProt Q96GD4); experiment: Inhibition of human Aurora B using [H-LRRASLG] as substrate at 20 uM in presence of [gamma-33P]-ATP incubated for 2 hrs by hotspot kinase assay relative to control
[3] = biological target: T3, Aurora kinase A (Homo sapiens, UniProt O14965); experiment: Inhibition of human Aurora A using [H-LRRASLG] as substrate in presence of [gamma-33P]-ATP incubated for 2 hrs by hotspot kinase assay
T3 sequence (O14965 whole entry): T1 sequence (whole entry)

[4] = biological target: T2, Aurora kinase B; experiment: Inhibition of human Aurora B using [H-LRRASLG] as substrate in presence of [gamma-33P]-ATP incubated for 2 hrs by hotspot kinase assay
[5] = tested on: K562; experiment: Antitumor activity against human K562 cells assessed as growth inhibition at 10^-5 M incubated for 48 hrs by SRB assay relative to control; type: functional; settings: K562, 48 h, read-out: GI
[6] = tested on: SR; experiment: Antitumor activity against human SR cells assessed as growth inhibition at 10-'5 M incubated for 48 hrs by SRB assay relative to control; type: functional
[7] = tested on: HOP-92; experiment: Antitumor activity against human HOP92 cells assessed as growth inhibition at 10-'5 M incubated for 48 hrs by SRB assay relative to control; type: functional
[8] = tested on: NCI-H522; experiment: Antitumor activity against human NCI-H522 cells assessed as growth inhibition at 10-'5 M incubated for 48 hrs by SRB assay relative to control; type: functional
[9] = tested on: HCT-15; experiment: Antitumor activity against human HCT15 cells assessed as growth inhibition at 10-'5 M incubated for 48 hrs by SRB assay relative to control; type: functional
[10] = tested on: HT-29; experiment: Antitumor activity against human HT-29 cells assessed as growth inhibition at 10-'5 M incubated for 48 hrs by SRB assay relative to control; type: functional
[11] = tested on: KM12; experiment: Antitumor activity against human KM12 cells assessed as growth inhibition at 10-'5 M incubated for 48 hrs by SRB assay relative to control; type: functional
[12] = tested on: SF-268; experiment: Antitumor activity against human SF268 cells assessed as growth inhibition at 10-'5 M incubated for 48 hrs by SRB assay relative to control; type: functional
[13] = tested on: SNB-19; experiment: Antitumor activity against human SNB19 cells assessed as growth inhibition at 10-'5 M incubated for 48 hrs by SRB assay relative to control; type: functional
[14] = tested on: LOX IMVI; experiment: Antitumor activity against human LOXIMVI cells assessed as growth inhibition at 10-'5 M incubated for 48 hrs by SRB assay relative to control; type: functional
[15] = tested on: SK-MEL-5; experiment: Antitumor activity against human SK-MEL-5 cells assessed as growth inhibition at 10-'5 M incubated for 48 hrs by SRB assay relative to control; type: functional
[16] = tested on: UACC-62; experiment: Antitumor activity against human UACC62 cells assessed as growth inhibition at 10-'5 M incubated for 48 hrs by SRB assay relative to control; type: functional
[17] = tested on: NCI/ADR-RES; experiment: Antitumor activity against human NCI-ADR-RES cells assessed as growth inhibition at 10-'5 M incubated for 48 hrs by SRB assay relative to control; type: functional
[18] = tested on: SK-OV-3; experiment: Antitumor activity against human SKOV3 cells assessed as growth inhibition at 10-'5 M incubated for 48 hrs by SRB assay relative to control; type: functional
[19] = tested on: 786-0; experiment: Antitumor activity against human 786-O cells assessed as growth inhibition at 10-'5 M incubated for 48 hrs by SRB assay relative to control; type: functional
[20] = tested on: A498; experiment: Antitumor activity against human A498 cells assessed as growth inhibition at 10-'5 M incubated for 48 hrs by SRB assay relative to control; type: functional
[21] = tested on: ACHN; experiment: Antitumor activity against human ACHN cells assessed as growth inhibition at 10-'5 M incubated for 48 hrs by SRB assay relative to control; type: functional
[22] = tested on: CAKI-1; experiment: Antitumor activity against human CAKI-1 cells assessed as growth inhibition at 10-'5 M incubated for 48 hrs by SRB assay relative to control; type: functional
[23] = tested on: RXF 393; experiment: Antitumor activity against human RXF393 cells assessed as growth inhibition at 10-'5 M incubated for 48 hrs by SRB assay relative to control; type: functional
[24] = tested on: SN12C; experiment: Antitumor activity against human SN12C cells assessed as growth inhibition at 10-'5 M incubated for 48 hrs by SRB assay relative to control; type: functional
[25] = tested on: UO-31; experiment: Antitumor activity against human UO31 cells assessed as growth inhibition at 10-'5 M incubated for 48 hrs by SRB assay relative to control; type: functional
[26] = tested on: PC-3; experiment: Antitumor activity against human PC3 cells assessed as growth inhibition at 10-'5 M incubated for 48 hrs by SRB assay relative to control; type: functional
[27] = tested on: MCF7; experiment: Antitumor activity against human MCF7 cells assessed as growth inhibition at 10-'5 M incubated for 48 hrs by SRB assay relative to control; type: functional
[28] = tested on: T47D; experiment: Antitumor activity against human T47D cells assessed as growth inhibition at 10-'5 M incubated for 48 hrs by SRB assay relative to control; type: functional
[29] = Antitumor activity against human […] cells assessed as growth inhibition at 10-'5 M incubated for 48 hrs by SRB assay relative to control; type: functional

T2 sequence (Q96GD4 whole entry): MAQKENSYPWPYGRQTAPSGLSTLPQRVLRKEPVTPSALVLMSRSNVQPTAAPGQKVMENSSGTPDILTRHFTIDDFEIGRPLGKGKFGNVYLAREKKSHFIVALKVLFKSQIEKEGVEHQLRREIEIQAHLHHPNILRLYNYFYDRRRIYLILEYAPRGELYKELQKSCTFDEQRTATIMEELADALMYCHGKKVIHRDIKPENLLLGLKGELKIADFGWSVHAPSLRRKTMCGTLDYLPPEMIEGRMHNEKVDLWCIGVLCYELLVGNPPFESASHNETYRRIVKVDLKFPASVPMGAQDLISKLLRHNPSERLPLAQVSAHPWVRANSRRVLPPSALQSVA

CCOC(=O)c1cnc2cc(Cl)cc(Cl)c2c1Nc1cccc(S(=O)(=O)NC)c1
inhibition [1]: 58.6%
inhibition [2]: 90.8%
IC50 [3]: 930 nM
IC50 [4]: 90 nM
inhibition of growth at 10 µM [5]: 35%
growth inhibition (GI) [6]: >=25%
growth inhibition (GI) [7]: 53%
growth inhibition (GI) [8]: 35%
growth inhibition (GI) [9]: 34%
growth inhibition (GI) [10]: >=25%
growth inhibition (GI) [11]: 64%
growth inhibition (GI) [12]: >=25%
growth inhibition (GI) [13]: >=25%
growth inhibition (GI) [14]: >=25%
growth inhibition (GI) [15]: 31%
growth inhibition (GI) [16]: 34%
growth inhibition (GI) [17]: >=25%
growth inhibition (GI) [18]: 31%
growth inhibition (GI) [19]: >=25%
growth inhibition (GI) [20]: 54%
growth inhibition (GI) [21]: 39%
growth inhibition (GI) [22]: 41%
growth inhibition (GI) [23]: 33%
growth inhibition (GI) [24]: >=25%
growth inhibition (GI) [25]: 50%
growth inhibition (GI) [26]: 30%
growth inhibition (GI) [27]: 30%
growth inhibition (GI) [28]: >=25%
growth inhibition (GI) [29]: 64%

— ChEMBL document CHEMBL4622865, “Sulfonamide-based 4-anilinoquinoline derivatives as novel dual Aurora kinase (AURKA/B) inhibitors: Synthesis, biological evaluation and in silico insights” (Bioorg Med Chem, 2020)
